This passage reports logP results from ChEMBL document CHEMBL1128241, “Molecular similarity matrices and quantitative structure-activity relationships: a case study with methodological implications” (J Med Chem, 1995).

One data set in a line: Partition coefficient (logP). Type of data set: physicochemical. Conditions: octanol/water.
In turn, `ClC(Cl)C(Cl)(Cl)Cl` [PENTACHLOROETHANE] registered a logP of 5.72.
Still for that read-out and setting: the result for `ClC(Cl)=C(Cl)Cl` [TETRACHLOROETHYLENE] reads 1.27; that for `ClC=C(Cl)Cl` [TRICHLOROETHYLENE], 0.96.

The same data set, now with this note: octanol/water; read-out: logP.
Consider `CCC(C)(C)Br`, for which the logP is 2.99.
Still for that read-out and setting: the result for `ClCC(Cl)(Cl)Cl` reads 3.05; that for `CCCCCBr`, 3.25.
Still for that read-out and setting: as for `CCCCCCCCBr`, the figure is 4.87; as for `C=C(Cl)CCl`, 1.75; as for `CCCCCCCl`, 3.65.
The same measure, in the same setting: the result for `CCC(C)Br` (stereo not drawn) reads 2.71; that for `CCC(C)CBr` (stereo not drawn), 3.12; that for `ClCCCBr`, 1.88.
In the case of `Cl/C=C/Cl`, the logP was 0.65.
Still for that read-out and setting: as for `C=C(C)CCl`, the figure is 1.89.
`CC(C)=CBr`: the logP was 1.8.
Same read-out and setting: the result for `ClCCCCl` reads 1.74.
On to `CCCCCCCCCl`, for which the log partition coefficient (logP) was determined as 4.85.
On the same count and under the same terms, as for `CC(C)CCBr`, the figure is 3.12; as for `ClCCBr`, 1.62.
Same read-out and setting: as for `ClCC=C(Cl)Cl`, the figure is 1.5; as for `CC(C)=CCl`, 1.89.
Same read-out and setting: as for `ClC(Cl)(Cl)Br`, the figure is 3.1.
Turning to `C=C(CCl)CCl`, the logP was 2.01.
Same read-out and setting: the result for `CC(Br)CCl` (stereo not drawn) reads 2.16.
Same read-out and setting: the result for `CC(C)CCl` reads 2.44; that for `FC(Cl)(Br)Br`, 2.8.
On the same count and under the same terms, as for `C/C(Cl)=C/Cl`, the figure is 1.79; as for `CCC(C)Cl` (stereo not drawn), 2.57; as for `CC(C)CBr`, 2.58.
With `ClCBr`, the logP worked out at 1.4.
On the same count and under the same terms, the result for `CC(Cl)C(C)Cl` (stereo not drawn) reads 2.56; that for `CC(C)(C)Cl`, 2.44.
Same read-out and setting: the result for `CC(C)(C)Br` reads 2.45; that for `CCCCCCl`, 3.11; that for `CC(C)(Cl)Cl`, 2.34.
Regarding `ClCCCCBr`, the logP was determined as 2.42.
On the same count and under the same terms, the result for `CC(Cl)CCCl` (stereo not drawn) reads 2.28; that for `CC(Cl)CCl` (stereo not drawn), 2.02.
For `CC(Cl)Cl`, the lipophilicity (logP) is 1.8.
Still for that read-out and setting: the result for `ClC(Cl)C(Cl)Cl` [1,1,2,2-TETRACHLOROETHANE] reads 2.66.
Still for that read-out and setting: as for `C=C(Cl)Cl` [1,1-DICHLOROETHENE], the figure is 1.21; as for `ClCC(Cl)CCl` [1,2,3-TRICHLOROPROPANE], 2.01.
Same read-out and setting: as for `Cl/C=C/CCl` [1,3-DICHLOROPROPENE], the figure is 1.19.
`CCCCBr` [1-BROMOBUTANE]: the logP came out at 2.71.
The same measure, in the same setting: the result for `ClC(Cl)Br` [BROMODICHLOROMETHANE] reads 2.67; that for `CCBr` [BROMOETHANE], 1.63.
The same measure, in the same setting: as for `BrC(Br)Br` [BROMOFORM], the figure is 2.38; as for `ClC(Cl)(Cl)Cl` [CARBON TETRACHLORIDE], 2.83; as for `ClC(Br)Br` [DIBROMOCHLOROMETHANE], 2.48.
`ClC(Cl)(Cl)C(Cl)(Cl)Cl` [HEXACHLOROETHANE]: the log partition coefficient (logP) worked out at 4.62.
The same measure, in the same setting: the result for `ClCCl` [METHYLENE CHLORIDE] reads 1.26; that for `CC(Cl)(Cl)Cl` [TRICHLOROETHANE], 2.5.
Same read-out and setting: the result for `FC(Cl)(Cl)Cl` [TRICHLOROMONOFLUOROMETHANE] reads 2.29.
